Assay results from US7135467B2, “HIV integrase inhibitors” (priority 2003, dated 2006).

These compounds were tested against T1, HIV-integrase (recombinant integrase) (Human immunodeficiency virus type 1 group M subtype B, UniProt P12497) (assay: HIV-Integrase Inhibition Activity (SPA bead strand-transfer assay)). Settings: recombinant integrase on biotin labeled substrate DNA/SPA beads, P33 labeled target DNA; read-out: Activity (IC50 against HIV-integrase).
T1 construct: Recombinant integrase (0.26 ng) was incubated with the beads
Assay type: biochemical
Description: To evaluate in-vitro activity against HIV-integrase, 5 pmole of biotin labeled substrate DNA was bound to 100 μg of Streptavidin coated PVT SPA beads (Amersham Pharmacia Biotech). Recombinant integrase (0.26 ng) was incubated with the beads for 90 min at 37° C. Unbound enzyme was removed by washing the complex followed by addition of inhibitors and 0.1 fmol of P33 labeled target DNA. The reaction was stopped by adding EDTA to a final concentration of 10 mM. Samples were counted in TopCountNXT (Packard) and the CPM was used as a measure of integration. The reaction condition was as described in A. Engelman and R. Craigie, J. Virol. 69, 5908–5911 (1995). The sequences of substrate and target DNA were described in Nucleic Acid Research 22, 1121–1122 (1994). Activity equal to A refers to a compound having IC50=0.003 to 0.10 μM while B and C denote compounds the following IC50=0.1 to 1.0 μM and IC50≧1.0 μM respectively.

Compared with `Cn1c(N2CCNCC2)nc(C(=O)NCc2ccc(F)cc2)c(O)c1=O` [Compound 69, N-[(4-fluorophenyl)methyl]-1,6-dihydro-5-hydroxy-1-methyl-6-oxo-2-(1-piperazinyl)-4-pyrimidinecarboxamide], `Cn1c(N2CCC2)nc(C(=O)NCc2ccc(F)cc2)c(O)c1=O` [Compound 92, 2-(1-azetidinyl)-N-[(4-fluorophenyl)methyl]-1,6-dihydro-5-hydroxy-1-methyl-6-oxo-4-pyrimidinecarboxamide] is lower in IC50: 100 to 1000 nM for the first, 3 to 100 nM for the second. The second is the more potent here.

`Cc1cc(CNC(=O)c2nc(N3CCNCC3)n(C)c(=O)c2O)ccc1F` [Compound 70, N-[(4-fluoro-3-methylphenyl)methyl]-1,6-dihydro-5-hydroxy-1-methyl-6-oxo-2-(1-piperazinyl)-4-pyrimidinecarboxamide] and `Cc1cc(CNC(=O)c2nc(N3CCC3)n(C)c(=O)c2O)ccc1F` [Compound 93, 2-(1-azetidinyl)-N-[(4-fluoro-3-methylphenyl)methyl]-1,6-dihydro-5-hydroxy-1-methyl-6-oxo-4-pyrimidinecarboxamide] fall in the same range of IC50: 3 to 100 nM for the first, 3 to 100 nM for the second.

`CC(=O)N1CCN(c2nc(C(=O)NCc3ccc(F)cc3)c(O)c(=O)n2C)CC1` [Compound 71, 2-(4-acetyl-1-piperazinyl)-N-[(4-fluorophenyl)methyl]-1,6-dihydro-5-hydroxy-1-methyl-6-oxo-4-pyrimidinecarboxamide] and `CNC(=O)N1CCN(c2nc(C(=O)NCc3ccc(F)cc3)c(O)c(=O)n2C)CC1` [Compound 87, N-[(4-fluorophenyl)methyl]-1,6-dihydro-5-hydroxy-1-methyl-2-[4-[(methylamino)carbonyl]-1-piperazinyl]-6-oxo-4-pyrimidinecarboxamide] fall in the same range of IC50: 3 to 100 nM for the first, 3 to 100 nM for the second.

`CC(=O)N1CCN(c2nc(C(=O)NCc3ccc(F)c(C)c3)c(O)c(=O)n2C)CC1` [Compound 72, 2-(4-acetyl-1-piperazinyl)-N-[(4-fluoro-3-methylphenyl)methyl]-1,6-dihydro-5-hydroxy-1-methyl-6-oxo-4-pyrimidinecarboxamide] and `CNC(=O)N1CCN(c2nc(C(=O)NCc3ccc(F)c(C)c3)c(O)c(=O)n2C)CC1` [Compound 88, N-[(4-fluoro-3-methylphenyl)methyl]-1,6-dihydro-5-hydroxy-1-methyl-2-[4-[(methylamino)carbonyl]-1-piperazinyl]-6-oxo-4-pyrimidinecarboxamide] fall in the same range of IC50: 3 to 100 nM for the first, 3 to 100 nM for the second.

`CCCN1CCN(c2nc(C(=O)NCc3ccc(F)cc3)c(O)c(=O)n2C)CC1` [Compound 73, N-[(4-fluorophenyl)methyl]-1,6-dihydro-5-hydroxy-1-methyl-6-oxo-2-(4-propyl-1-piperazinyl)-4-pyrimidinecarboxamide] and `CCCN1CCN(c2nc(C(=O)NCc3ccc(F)c(C)c3)c(O)c(=O)n2C)CC1` [Compound 74, N-[(4-fluoro-3-methylphenyl)methyl]-1,6-dihydro-5-hydroxy-1-methyl-6-oxo-2-(4-propyl-1-piperazinyl)-4-pyrimidinecarboxamide] fall in the same range of IC50: 3 to 100 nM for the first, 3 to 100 nM for the second.

`Cn1c(N2CCN(c3ccccn3)CC2)nc(C(=O)NCc2ccc(F)cc2)c(O)c1=O` [Compound 75, N-[(4-fluorophenyl)methyl]-1,6-dihydro-5-hydroxy-1-methyl-6-oxo-2-[4-(2-pyridinyl)-1-piperazinyl]-4-pyrimidinecarboxamide] and `Cc1cc(CNC(=O)c2nc(N3CCN(c4ccccn4)CC3)n(C)c(=O)c2O)ccc1F` [Compound 76, N-[(4-fluoro-3-methylphenyl)methyl]-1,6-dihydro-5-hydroxy-1-methyl-6-oxo-2-[4-(2-pyridinyl)-1-piperazinyl]-4-pyrimidinecarboxamide] fall in the same range of IC50: 3 to 100 nM for the first, 3 to 100 nM for the second.

`Cn1c(N2CCN(c3ncccn3)CC2)nc(C(=O)NCc2ccc(F)cc2)c(O)c1=O` [Compound 77, N-[(4-fluorophenyl)methyl]-1,6-dihydro-5-hydroxy-1-methyl-6-oxo-2-[4-(2-pyrimidinyl)-1-piperazinyl]-4-pyrimidinecarboxamide] and `Cc1cc(CNC(=O)c2nc(N3CCN(c4ncccn4)CC3)n(C)c(=O)c2O)ccc1F` [Compound 78, N-[(4-fluoro-3-methylphenyl)methyl]-1,6-dihydro-5-hydroxy-1-methyl-6-oxo-2-[4-(2-pyrimidinyl)-1-piperazinyl]-4-pyrimidinecarboxamide] fall in the same range of IC50: 3 to 100 nM for the first, 3 to 100 nM for the second.

`Cn1c(N2CCN(c3ccccc3)CC2)nc(C(=O)NCc2ccc(F)cc2)c(O)c1=O` [Compound 79, N-[(4-fluorophenyl)methyl]-1,6-dihydro-5-hydroxy-1-methyl-6-oxo-2-(4-phenyl-1-piperazinyl)-4-pyrimidinecarboxamide] and `Cc1cc(CNC(=O)c2nc(N3CCN(c4ccccc4)CC3)n(C)c(=O)c2O)ccc1F` [Compound 80, N-[(4-fluoro-3-methylphenyl)methyl]-1,6-dihydro-5-hydroxy-1-methyl-6-oxo-2-(4-phenyl-1-piperazinyl)-4-pyrimidinecarboxamide] fall in the same range of IC50: 3 to 100 nM for the first, 3 to 100 nM for the second.

`Cn1c(N2CCN(C(=O)N3CCNC3=O)CC2)nc(C(=O)NCc2ccc(F)cc2)c(O)c1=O` [Compound 85, N-[(4-fluorophenyl)methyl]-1,6-dihydro-5-hydroxy-1-methyl-6-oxo-2-[4-[(2-oxo-1-imidazolidinyl)carbonyl]-1-piperazinyl]-4-pyrimidinecarboxamide] and `Cc1cc(CNC(=O)c2nc(N3CCN(C(=O)N4CCNC4=O)CC3)n(C)c(=O)c2O)ccc1F` [Compound 86, N-[(4-fluoro-3-methylphenyl)methyl]-1,6-dihydro-5-hydroxy-1-methyl-6-oxo-2-[4-[(2-oxo-1-imidazolidinyl)carbonyl]-1-piperazinyl]-4-pyrimidinecarboxamide] fall in the same range of IC50: 3 to 100 nM for the first, 3 to 100 nM for the second.

`Cn1c(N2CCCC2)nc(C(=O)NCc2ccc(F)cc2)c(O)c1=O` [Compound 91, N-[(4-fluorophenyl)methyl]-1,6-dihydro-5-hydroxy-1-methyl-6-oxo-2-(1-pyrrolidinyl)-4-pyrimidinecarboxamide] and `Cn1c(N2CCC(C(N)=O)CC2)nc(C(=O)NCc2ccc(F)cc2)c(O)c1=O` [Compound 94, 2-[4-(aminocarbonyl)-1-piperidinyl]-N-[(4-fluorophenyl)methyl]-1,6-dihydro-5-hydroxy-1-methyl-6-oxo-4-pyrimidinecarboxamide] fall in the same range of IC50: 3 to 100 nM for the first, 3 to 100 nM for the second.

First: Cn1c(N2CCC[C@H]2C(N)=O)nc(C(=O)NCc2ccc(F)cc2)c(O)c1=O [Compound 95, 2-[(2S)-2-(aminocarbonyl)-1-pyrrolidinyl]-N-[(4-fluorophenyl)methyl]-1,6-dihydro-5-hydroxy-1-methyl-6-oxo-4-pyrimidinecarboxamide]
Second: Cn1c(N2CCCCC2CO)nc(C(=O)NCc2ccc(F)cc2)c(O)c1=O (centres unmarked) [Compound 96, 4-pyrimidineN-[(4-fluorophenyl)methyl]-1,6-dihydro-5-hydroxy-2-[2-(hydroxymethyl)-1-piperidinyl]-1-methyl-6-oxo-carboxamide]
The IC50 of the first is lower: 3 to 100 nM for the first, 100 to 1000 nM for the second. The first is the more potent here.

In the case of `Cc1cc(CNC(=O)c2nc(N3CCCCC3CO)n(C)c(=O)c2O)ccc1F` (centres unmarked) [Compound 97, N-[(4-fluoro-3-methylphenyl)methyl]-1,6-dihydro-5-hydroxy-2-[2-(hydroxymethyl)-1-piperidinyl]-1-methyl-6-oxo-4-pyrimidinecarboxamide], the IC50 is reported as 3 to 100 nM.
